Activity calls are given as the source filed them.
What was measured:
[1] = Luminescence Cell-Based Dose Confirmation HTS to Identify Inhibitors of Platelet Dense Granule Release. [Related pubchem assays: 1663 (Primary HTS), 1678 (Summary of Project)]; format: functional
[2] = cytotoxicity in HEK-293T cells, dose response, cytotoxicity control for TCR NF-kB inhibitor project, luminescence, T-cell screen hits (AID 489026); format: functional, cell-based;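 also: cells exposed to compound about 14 hours before the viability readout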
Cytochrome P450 2C19 = Cytochrome P450 2C19 (Homo sapiens, UniProt P33261); test: Cytochrome panel assay with activity outcomes. Panel member name: p450-cyp2c19 Compounds with AC50 equal or less than 10 uM are considered active; format: functional; details: read-out: AC50
Cytochrome P450 2C19, sequence (P33261 whole entry): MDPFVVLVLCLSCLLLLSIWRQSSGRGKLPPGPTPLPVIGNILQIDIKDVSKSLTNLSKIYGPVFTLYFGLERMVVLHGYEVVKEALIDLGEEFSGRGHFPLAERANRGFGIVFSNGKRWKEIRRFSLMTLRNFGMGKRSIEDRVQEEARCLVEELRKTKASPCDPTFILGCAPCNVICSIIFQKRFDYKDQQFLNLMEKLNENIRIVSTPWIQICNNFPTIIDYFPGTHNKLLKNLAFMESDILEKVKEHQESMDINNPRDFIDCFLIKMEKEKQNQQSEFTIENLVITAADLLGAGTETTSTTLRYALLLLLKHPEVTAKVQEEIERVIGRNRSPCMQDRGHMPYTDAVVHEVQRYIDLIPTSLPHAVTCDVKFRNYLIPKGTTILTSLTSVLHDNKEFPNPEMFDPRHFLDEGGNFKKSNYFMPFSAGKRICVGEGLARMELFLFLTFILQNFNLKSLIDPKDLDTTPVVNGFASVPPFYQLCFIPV

[3] = growth suppression of beta-catenin-knockout colon cells, dose response, cell-based, HCT116, human colon tumor (AID 1045); format: functional;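 also: HCT116 colon tumor cells with beta catenin knocked out; cells exposed to compound for 60 hours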
[4] = growth suppression of PTEN-null colon cells, dose response, cell-based, HCT116 PTEN knockout (AID 1047); format: functional;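 also: HCT116 colon tumor cells with PTEN knocked out; cells exposed to compound for 60 hours before readout; potency for loss of cell viability measured by luminescence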
[5] = target: Luciferin 4-monooxygenase (Photinus pyralis, UniProt P08659); test: firefly luciferase enzyme inhibitors, dose response, biochemical, luminescence (AID 1891)
Luciferin 4-monooxygenase, sequence (P08659 whole entry): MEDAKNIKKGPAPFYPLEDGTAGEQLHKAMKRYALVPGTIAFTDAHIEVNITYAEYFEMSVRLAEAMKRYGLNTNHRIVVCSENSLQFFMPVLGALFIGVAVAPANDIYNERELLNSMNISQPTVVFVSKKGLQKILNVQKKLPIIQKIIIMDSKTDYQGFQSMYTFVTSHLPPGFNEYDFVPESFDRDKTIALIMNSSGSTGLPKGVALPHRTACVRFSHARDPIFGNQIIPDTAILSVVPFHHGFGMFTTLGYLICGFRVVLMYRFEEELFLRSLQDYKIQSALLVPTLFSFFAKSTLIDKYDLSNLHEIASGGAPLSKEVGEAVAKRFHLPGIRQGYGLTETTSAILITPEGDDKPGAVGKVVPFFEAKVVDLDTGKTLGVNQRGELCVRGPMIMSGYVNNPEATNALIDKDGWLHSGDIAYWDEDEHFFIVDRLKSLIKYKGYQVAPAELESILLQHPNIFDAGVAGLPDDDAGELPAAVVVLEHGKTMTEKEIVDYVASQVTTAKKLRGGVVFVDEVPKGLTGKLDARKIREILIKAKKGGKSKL

[6] = microbe, parasite or virus in culture; format: functional; details: Mycobacterium tuberculosis
[7] = inhibitors of intracellular T. cruzi replication, confirmation, NIH3T3 host cells, beta-gal luminescence (AID 2044); format: functional, cell-based;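 also: intracellular parasites grown in NIH/3T3 mouse fibroblasts as host cells; luminescent beta-galactosidase reporter signal from transgenic T. cruzi replicating inside host cells; inhibitors lower the luminescence signal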
Vero = test: cells; format: functional; details: Chlorocebus sabaeus
[8] = cytotoxicity toward NIH3T3 fibroblasts, dose response, counter-screen, cell-based, ATP luminescence, mouse fibroblasts (AID 2010); format: functional;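 also: cells exposed to compound for about 90 hours before reading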
H9c2 = test: cells; format: functional, cell-based; details: Rattus norvegicus, H9c2, Myocardium;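 also: confirmatory concentration-response retest of ultra-high-throughput screening hits for modulation of myocardial damage; cell death induced by hydrogen peroxide oxidative stress; compound pretreatment for 60 min then peroxide exposure for 2 h; potency is for protecting the cells against peroxide damage rather than for killing them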
HEK293 = test: inhibitors of LMP1-driven NF-kB reporter, dose response, cell-based, HEK293, luciferase, cherry-pick (AID 588343); format: functional; details: Homo sapiens
cells [9] = format: functional, cell-based
cells [10] = format: functional, cell-based; remark: listed apart in the source
INS1 = test: beta cell apoptosis inhibitors, cytokine rescue, dose response, luminescence, retest (AID 449756); format: functional, cell-based; details: Rattus norvegicus;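 also: cell death triggered by IL-1 beta plus TNF-alpha plus IFN-gamma mixture; protective hits raise ATP signal compared with cytokine alone wells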
[11] = test system: Streptococcus sp. 'group A'; test: growth inhibition of control SK(-) GAS strain, dose response, counter-screen for streptokinase expression inhibitor project, luminescence, kanamycin, BacTiterGlo, confirmation (AID 1900); format: functional, organism-based
Streptococcus = test: Group A Streptococcus viability loss, dose response, counter-screen for streptokinase expression inhibitor project, luminescence, BacTiterGlo (AID 1915); format: functional, organism-based;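 also: potency for reduction of bacterial viability or growth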
[12] = target: T1, Polyadenylate-binding protein 1 (Homo sapiens, UniProt P11940); test: PABP1 MLLE–PAM2 binding inhibitor potency, dose response, biochemical, fluorescence polarization, FITC-PAM2 peptide (AID 602259); format: functional; details: read-out: IC50_Mean
T1 sequence (P11940 whole entry): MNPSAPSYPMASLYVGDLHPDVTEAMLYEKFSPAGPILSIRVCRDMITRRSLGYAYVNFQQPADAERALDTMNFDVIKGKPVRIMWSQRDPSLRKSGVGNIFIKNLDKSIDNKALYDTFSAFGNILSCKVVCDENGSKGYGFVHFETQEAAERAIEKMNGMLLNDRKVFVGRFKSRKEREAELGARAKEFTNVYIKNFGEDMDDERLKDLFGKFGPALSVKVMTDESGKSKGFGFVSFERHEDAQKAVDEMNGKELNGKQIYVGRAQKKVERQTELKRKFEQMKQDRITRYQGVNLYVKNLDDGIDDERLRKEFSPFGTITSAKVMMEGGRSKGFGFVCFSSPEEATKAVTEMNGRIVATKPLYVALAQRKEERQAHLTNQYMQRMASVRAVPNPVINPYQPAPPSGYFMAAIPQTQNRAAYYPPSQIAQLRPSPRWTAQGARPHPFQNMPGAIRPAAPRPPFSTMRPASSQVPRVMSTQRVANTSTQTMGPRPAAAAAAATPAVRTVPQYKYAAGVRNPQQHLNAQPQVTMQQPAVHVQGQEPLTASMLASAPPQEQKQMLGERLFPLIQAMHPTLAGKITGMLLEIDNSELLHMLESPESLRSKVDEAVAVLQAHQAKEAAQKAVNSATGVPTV

[13] = target: T1, Polyadenylate-binding protein 1; test: PABP1 MLLE–PAM2 interaction inhibitors, dose response, miRNA deadenylation inhibitor project, biochemical, fluorescence polarization, Cy5-PAM2 peptide, secondary (AID 602260); format: functional; details: read-out: IC50_Mean
[14] = target: T2, Replicative DNA helicase DnaB (Mycobacterium tuberculosis, UniProt P9WMR3); test: DnaB intein splicing inhibitors, dose response, biochemical, cell-free fluorescence (AID 449749); format: functional
T2 sequence (P9WMR3 whole entry): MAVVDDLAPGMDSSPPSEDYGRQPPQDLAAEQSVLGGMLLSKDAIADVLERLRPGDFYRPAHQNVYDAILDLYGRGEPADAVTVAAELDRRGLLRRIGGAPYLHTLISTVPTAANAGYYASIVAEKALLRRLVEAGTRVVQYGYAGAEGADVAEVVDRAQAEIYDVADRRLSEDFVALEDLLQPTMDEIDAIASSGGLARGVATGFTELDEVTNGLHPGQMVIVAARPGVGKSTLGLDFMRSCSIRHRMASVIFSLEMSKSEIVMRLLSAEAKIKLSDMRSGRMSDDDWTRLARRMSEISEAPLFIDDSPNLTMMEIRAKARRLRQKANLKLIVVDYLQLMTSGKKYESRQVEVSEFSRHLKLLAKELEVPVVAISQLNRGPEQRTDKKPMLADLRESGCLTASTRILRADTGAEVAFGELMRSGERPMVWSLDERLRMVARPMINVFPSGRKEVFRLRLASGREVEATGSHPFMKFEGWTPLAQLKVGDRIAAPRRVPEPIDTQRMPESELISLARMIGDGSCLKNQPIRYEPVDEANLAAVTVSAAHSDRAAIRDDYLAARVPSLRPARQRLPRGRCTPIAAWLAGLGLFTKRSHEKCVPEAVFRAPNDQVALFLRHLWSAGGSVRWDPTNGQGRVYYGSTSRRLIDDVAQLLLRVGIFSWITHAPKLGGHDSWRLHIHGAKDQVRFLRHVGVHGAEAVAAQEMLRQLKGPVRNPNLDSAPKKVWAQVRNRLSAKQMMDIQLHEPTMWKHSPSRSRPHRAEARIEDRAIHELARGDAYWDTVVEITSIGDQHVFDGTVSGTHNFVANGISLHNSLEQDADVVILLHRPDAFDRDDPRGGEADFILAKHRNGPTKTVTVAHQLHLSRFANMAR

BJ [15] = test: cells; format: functional, cell-based; details: Homo sapiens
Protein RecA = target: T3, Protein RecA (Mycobacterium tuberculosis, UniProt P9WHJ3); test: Fluorescence Cell-Free Homogeneous Dose Retest to Identify Inhibitors of RecA-Intein Splicing Activity. [Related pubchem assays (depositor defined):AID2097, AID2223, AID489010, AID492950]; format: functional
T3 sequence (P9WHJ3 whole entry): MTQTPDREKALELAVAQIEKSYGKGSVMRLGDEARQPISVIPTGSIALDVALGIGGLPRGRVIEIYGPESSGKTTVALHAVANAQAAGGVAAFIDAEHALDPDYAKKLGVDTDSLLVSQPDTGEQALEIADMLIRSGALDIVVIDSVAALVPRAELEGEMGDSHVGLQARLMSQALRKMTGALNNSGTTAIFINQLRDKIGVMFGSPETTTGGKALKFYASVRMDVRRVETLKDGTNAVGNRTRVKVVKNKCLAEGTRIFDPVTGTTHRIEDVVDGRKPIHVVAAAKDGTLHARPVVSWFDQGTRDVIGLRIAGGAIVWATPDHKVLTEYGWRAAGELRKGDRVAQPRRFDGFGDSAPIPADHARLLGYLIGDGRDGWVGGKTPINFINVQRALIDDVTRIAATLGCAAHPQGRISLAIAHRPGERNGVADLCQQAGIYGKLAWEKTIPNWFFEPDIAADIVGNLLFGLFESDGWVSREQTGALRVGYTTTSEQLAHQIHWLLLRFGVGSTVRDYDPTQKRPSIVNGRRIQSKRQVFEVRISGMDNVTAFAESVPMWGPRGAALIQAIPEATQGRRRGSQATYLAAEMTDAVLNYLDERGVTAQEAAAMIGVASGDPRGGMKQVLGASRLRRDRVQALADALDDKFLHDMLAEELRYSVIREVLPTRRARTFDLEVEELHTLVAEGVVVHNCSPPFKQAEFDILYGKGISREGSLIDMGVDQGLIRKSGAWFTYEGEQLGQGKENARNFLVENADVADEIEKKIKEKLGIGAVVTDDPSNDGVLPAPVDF

BJ [16] = test: cytotoxicity toward BJ-TERT fibroblasts, dose response, cell-based, RAS-independent, luminescence (AID 1933); format: functional; details: Homo sapiens
[17] = cytotoxicity toward DRD oncogenic fibroblasts, dose response, cell-based, non-viral oncogenic, luminescence (AID 1934); format: functional; details: Homo sapiens
BJ [18] = test: cytotoxicity toward BJ-TERT-LT-ST fibroblasts, dose response, cell-based, RAS-independent, luminescence (AID 1935); format: functional; details: Homo sapiens;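 also: BJ fibroblasts immortalized with TERT plus LT and ST oncogenes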
Fatty acid synthase [19] = target: T4, Fatty acid synthase (Homo sapiens, UniProt P49327); test: FAS thioesterase domain inhibitors, dose response, biochemical, kinetic fluorescence intensity (AID 624326); format: functional;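 also: rate of fluorescence rise from hydrolysis of a fluorogenic O-methyl fluorescein ester substrate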
T4 sequence (P49327 whole entry, the tested form may be a part): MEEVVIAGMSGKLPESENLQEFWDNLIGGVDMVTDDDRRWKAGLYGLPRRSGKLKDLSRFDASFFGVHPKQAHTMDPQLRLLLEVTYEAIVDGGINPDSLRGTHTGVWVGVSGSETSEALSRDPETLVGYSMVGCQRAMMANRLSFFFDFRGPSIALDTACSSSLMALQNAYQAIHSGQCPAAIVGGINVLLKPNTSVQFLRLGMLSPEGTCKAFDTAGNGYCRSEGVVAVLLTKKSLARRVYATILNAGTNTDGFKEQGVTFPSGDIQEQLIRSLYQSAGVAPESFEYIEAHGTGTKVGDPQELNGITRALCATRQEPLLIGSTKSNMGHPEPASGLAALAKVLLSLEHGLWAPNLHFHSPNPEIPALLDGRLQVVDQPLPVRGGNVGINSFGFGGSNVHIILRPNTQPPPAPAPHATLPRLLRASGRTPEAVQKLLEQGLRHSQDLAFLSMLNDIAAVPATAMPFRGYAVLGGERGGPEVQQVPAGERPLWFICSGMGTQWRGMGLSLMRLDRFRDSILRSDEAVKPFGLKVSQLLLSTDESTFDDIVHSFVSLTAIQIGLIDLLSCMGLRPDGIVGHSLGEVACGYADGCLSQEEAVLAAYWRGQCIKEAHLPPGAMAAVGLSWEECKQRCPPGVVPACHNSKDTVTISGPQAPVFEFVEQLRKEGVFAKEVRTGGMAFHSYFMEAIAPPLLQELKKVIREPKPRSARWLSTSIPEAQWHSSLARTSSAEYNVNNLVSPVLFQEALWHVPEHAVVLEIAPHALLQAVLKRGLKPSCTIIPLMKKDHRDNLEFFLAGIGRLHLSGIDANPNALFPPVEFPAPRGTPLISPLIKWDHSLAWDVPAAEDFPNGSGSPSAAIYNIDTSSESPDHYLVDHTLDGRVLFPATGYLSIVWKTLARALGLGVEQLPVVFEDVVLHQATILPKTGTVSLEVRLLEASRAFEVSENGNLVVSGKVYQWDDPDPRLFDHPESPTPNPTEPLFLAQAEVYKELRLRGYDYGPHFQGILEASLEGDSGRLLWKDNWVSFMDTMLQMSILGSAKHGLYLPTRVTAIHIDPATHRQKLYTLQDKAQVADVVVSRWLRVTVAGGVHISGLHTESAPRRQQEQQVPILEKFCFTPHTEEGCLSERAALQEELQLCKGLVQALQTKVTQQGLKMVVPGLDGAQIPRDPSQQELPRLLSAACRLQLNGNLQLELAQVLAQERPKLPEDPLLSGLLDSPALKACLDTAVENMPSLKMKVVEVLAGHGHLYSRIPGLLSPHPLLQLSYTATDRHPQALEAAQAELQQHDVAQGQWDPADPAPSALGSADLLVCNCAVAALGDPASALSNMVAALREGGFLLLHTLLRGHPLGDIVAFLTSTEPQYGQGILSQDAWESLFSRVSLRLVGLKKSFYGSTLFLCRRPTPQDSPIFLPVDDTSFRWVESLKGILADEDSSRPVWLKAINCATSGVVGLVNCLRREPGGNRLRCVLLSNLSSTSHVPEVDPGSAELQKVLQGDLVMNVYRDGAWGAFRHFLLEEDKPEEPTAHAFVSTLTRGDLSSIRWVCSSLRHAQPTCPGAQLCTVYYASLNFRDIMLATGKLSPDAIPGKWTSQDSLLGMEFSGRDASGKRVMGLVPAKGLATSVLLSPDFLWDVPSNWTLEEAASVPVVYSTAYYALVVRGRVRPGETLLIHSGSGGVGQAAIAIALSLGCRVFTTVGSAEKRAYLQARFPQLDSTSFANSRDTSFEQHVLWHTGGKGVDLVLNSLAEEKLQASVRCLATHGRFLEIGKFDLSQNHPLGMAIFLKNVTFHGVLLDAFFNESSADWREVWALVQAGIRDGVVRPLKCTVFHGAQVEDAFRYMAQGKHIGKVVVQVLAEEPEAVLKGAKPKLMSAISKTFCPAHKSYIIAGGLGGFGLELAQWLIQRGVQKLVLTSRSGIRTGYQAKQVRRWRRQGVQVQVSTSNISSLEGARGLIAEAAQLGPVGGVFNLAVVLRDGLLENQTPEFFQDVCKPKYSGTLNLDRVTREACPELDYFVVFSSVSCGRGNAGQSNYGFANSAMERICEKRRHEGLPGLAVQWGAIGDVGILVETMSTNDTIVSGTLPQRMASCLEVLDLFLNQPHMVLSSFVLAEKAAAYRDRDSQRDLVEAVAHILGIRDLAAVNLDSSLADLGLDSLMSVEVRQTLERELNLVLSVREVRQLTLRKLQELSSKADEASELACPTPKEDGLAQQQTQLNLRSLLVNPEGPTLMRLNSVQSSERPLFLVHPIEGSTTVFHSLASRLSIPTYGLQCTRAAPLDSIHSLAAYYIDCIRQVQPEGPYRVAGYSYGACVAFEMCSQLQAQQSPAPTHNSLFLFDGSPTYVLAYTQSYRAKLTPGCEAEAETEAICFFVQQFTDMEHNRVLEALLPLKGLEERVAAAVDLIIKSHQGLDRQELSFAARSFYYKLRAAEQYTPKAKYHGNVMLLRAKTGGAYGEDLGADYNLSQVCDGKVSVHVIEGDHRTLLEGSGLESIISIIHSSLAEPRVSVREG

Fatty acid synthase [20] = target: T4, Fatty acid synthase; test: FAS thioesterase domain inhibitors, dose response, biochemical, endpoint fluorescence intensity, uHTS hits (AID 624327); format: functional;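 also: fluorescence from hydrolysis of an O-methyl fluorescein acyl ester substrate by the enzyme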
[21] = inhibitors of HIV Env-driven cell fusion, dose response, cherry-pick (AID 652057); format: functional, cell-based
[22] = ZM109 Env clade C HIV-1 fusion inhibitors, dose response, HeLa effector, CEM target cells, luciferase, cherry-pick (AID 652058); format: functional, cell-based
[23] = inhibitors of firefly luciferase expression or activity, dose response, H4 neuroglioma cells, luminescence (AID 1990); format: functional, cell-based
[24] = Luminescence Cell-Based Dose Response HTS to Identify Inhibitors of 5'UTR Stem-Loop Driven Prion Protein mRNA Translation in H4 Neuroglioblastoma Cells. [Related pubchem assays: 1827 (Project Summary), 1813 (Primary HTS)]; format: functional
[25] = inhibitors of SNCA 5'UTR-driven reporter translation, confirmation, H4 neuroglioma cells, luminescence (AID 1988); format: functional, cell-based

CCCCCCCCC[n+]1cccc2c3ccccc3ccc21
EC50 [1]: 64.7 µM (active)
IC50 [2]: 49.8 µM (inactive)
AC50 (Cytochrome P450 2C19): 20 µM (inconclusive)
EC50 [3]: 0.798 µM (active)
EC50 [4]: 0.868 µM (active)
EC50 [5]: 67.9 µM (active)

c1ccc(C[C@H]2CN=C(Nc3ccccc3)N2CCCC2CCCC2)cc1
CC50 [6]: > 40 µM (active)

CCc1ccc2nc(N(CCCN(C)C)C(=O)c3ccc4c(c3)OCCO4)sc2c1
EC50 [7]: 0.214 µM (active)
CC50 (Vero): > 25 µM (active)
EC50 [8]: 8.8 µM (active)

COc1cc(-c2nnc(-c3cc(OC)c(OC)c(OC)c3)o2)cc(OC)c1OC
EC50 [1]: 41 µM (active)
IC50 (H9c2): > 79 µM (inactive)
EC50 [5]: > 112 µM (not active)

Cc1ccc(OCc2cc(C(=O)N(C)Cc3cnc4ccccn34)no2)cc1C
CC50 [6]: > 40 µM (active)

O=C(Nc1cccc(Cl)c1)Nc1cccc(C(=O)O)c1
AC50 (HEK293): 10.5 µM (active)
EC50 (cells [9]): 7.49 µM (active)
EC50 (cells [10]): > 350 µM (not active)

CCOC(=O)c1c(CSc2nc(C)cc(C)c2C#N)n(C)c2cc(Br)c(OC(C)=O)cc12
AC50 (INS1): 4.21 µM (active)
AC50 (HEK293): 31.6 µM (active)

CCOCCOC(=O)c1[nH]c2c(c1C)C(=O)CC(c1cccs1)C2 (stereo unspecified)
IC50 [2]: > 80 µM (inactive)

N#CCSc1nc2cc(C(=O)N3CCC(C(N)=O)CC3)ccc2c2nc3ccccc3n12
IC50 (H9c2): > 79 µM (inactive)

O=C(/C=C/c1ccc(Br)cc1)NC(=S)NNC(=O)c1ccco1
EC50 [11]: 0.343 µM (active)
EC50 (Streptococcus): 0.887 µM (active)
CC50 (Vero): > 25 µM (active)

COc1cc(C#Cc2c(-c3cncn3C)n(C)c3ccc(-c4cnc(N5CCOCC5)nc4)cc23)cc(OC)c1
CC50 [6]: 29.3 µM (active)

OCCCNCc1ccc(N(c2ccccc2)c2ccccc2)cc1
CC50 (Vero): > 25 µM (active)

O=c1[nH]n(Cc2ccccc2)c(=O)c2ccccc12
IC50 (H9c2): > 79 µM (inactive)

S=C(Nc1ccc(Nc2ccccc2)cc1)Nc1ccccn1
IC50 [12]: > 66 µM (inactive)
AC50 (INS1): 6.34 µM (active)
CC50 [6]: > 40 µM (active)
IC50 [13]: > 66 µM (inactive)

O=C1c2cc([N+](=O)[O-])ccc2-c2ncccc21
AC50 [14]: 36.7 µM (active)
EC50 (BJ [15]): > 150 µM (not active)
EC50 (Protein RecA): 11.1 µM (active)
EC50 (BJ [16]): 24.4 µM (active)
EC50 [17]: > 150 µM (not active)
EC50 (BJ [18]): > 150 µM (not active)

O=C(CN(c1ccc2c(c1)OCCO2)S(=O)(=O)c1ccccc1)Nc1ccc2c(c1)OCO2
IC50 (H9c2): > 79 µM (inactive)

Cn1c(=O)c2c(nc(NCc3ccc4c(c3)OCO4)n2C)n(C)c1=O
IC50 (H9c2): 36.1 µM (inactive)

Cc1ccc(S(=O)(=O)Nc2cccc(-c3ccc4nncn4n3)c2)cc1
IC50 (Fatty acid synthase [19]): 21.3 µM (inactive)
IC50 [2]: > 80 µM (inactive)
IC50 (Fatty acid synthase [20]): 15.7 µM (active)

O=C1C=C(c2ccc3ncccc3c2)C[C@@H](c2ccc3c(c2)OCO3)C1
IC50 [2]: > 80 µM (inactive)

CC1CCCN(CCCNC(=O)c2ccc3c(c2)N(Cc2cccc(Cl)c2)C(=O)c2ccccc2[S+]3[O-])C1 (stereo unspecified)
CC50 (Vero): > 25 µM (active)

O=C(COC(=O)Cc1nnc(O)c2ccccc12)Nc1c(Br)cc([N+](=O)[O-])cc1Br
IC50 (H9c2): > 79 µM (inactive)

O=C(NN=Cc1ccc(N(CCCl)CCCl)cc1)c1cccnc1
AC50 (HEK293): 1.08 µM (active)

CCN1C(=O)[C@H]2[C@H]3CN=C(SCc4ccc(C#N)cc4)N3[C@@](Cc3ccccc3)(C(=O)OC)[C@H]2C1=O
IC50 (H9c2): > 79 µM (inactive)

CCOC(=O)c1cc(-c2ccc(/C=N\n3cnnc3)o2)ccc1Cl
IC50 (H9c2): > 79 µM (inactive)

O=C(O)c1ccc(N/N=C/c2cc3cc4c(cc3nc2Cl)OCCO4)cc1
AC50 (HEK293): 1.69 µM (active)

C[C@@H]1CN([C@H](C)CO)C(=O)c2cc(C#Cc3ccncc3)cnc2O[C@@H]1CN(C)S(=O)(=O)c1ccccc1F
AC50 [21]: 30 µM (active)
AC50 [22]: 25.1 µM (active)

COc1ccc2cc(C(N)=O)/c(=N\NC(=O)c3ccccc3)oc2c1
EC50 [23]: 9.51 µM (inconclusive)
AC50 (HEK293): 2.83 µM (active)
EC50 [24]: 8.54 µM (active)
EC50 [25]: 7.7 µM (active)

CC(=O)O[C@H]1C(=O)[C@]2(C)[C@H]([C@H](OC(=O)c3ccccc3)[C@]3(O)C[C@H](OC(=O)[C@H](O)[C@@H](NC(=O)c4ccccc4)c4ccccc4)C(C)=C1C3(C)C)[C@]1(OC(C)=O)CO[C@@H]1C[C@@H]2O
IC50 [2]: > 80 µM (inactive)

Source: ChEMBL document CHEMBL1201862, “PubChem BioAssay data set” (2004)
